# Results: patent US8066971B2, “Targeting pulmonary epithelium using ADRP” (Los Angeles Biomedical Reseach Institute at Harbor UCLA …, priority 2005, dated 2011)
# “Also recorded” adds a separate entry of the source. Starred links: 1 amine or outer side, 2 acyl side, 3 side chain; linkers in the order of their positions; H or OH if unused. Positions of bridges follow the written chain, without caps; N, C: chain ends. Non-standard residues stand in square brackets, D forms with d. Residues, ends and D or L forms follow the SMILES beside them. Chains are numbered I, II in the order given. Actinocin(9to1) = Cc1c2oc3c(C)ccc(C(=O)[*:1])c3nc-2c(C(=O)[*:2])c(N)c1=O; NMeV = CN[C@H](C(=O)O)C(C)C; Sar = CNCC(=O)O
# Legend:
# [1] = tested on: SP-B protein levels in A549 cells; assay: SP-B protein levels in A549 cells (Western blot); format: cell-based; details: cycloheximide 5 :g/ml, concomitant with ADRP-LDs
# Experimental: (§1) Monolayer cultures of A549 cells were incubated with ADRP-LDs labeled with either tritium or GFP as follows: ^3H-labeled (10,000 dpm/min/20 μg triacylglycerol) ADRP-LDs were isolated from fetal rat lung fibroblasts, as described above. Where indicated, incubations were carried out in the presence of either actinomycin D or cyclohexamide to determine if de novo mRNA or protein synthesis, respectively, was involved in LD processing. Elsewhere, incubations were conducted in the presence of ADRP antibody (rabbit anti-ADRP IgG kindly provided by Dr. Constantine Londos, NIDDK) to determine the specificity of the ADRP effect on LD uptake. At the end of the incubation, the cells were processed for ^3H-satPC (Floros et al. (1987) J Biol Chem. 262(28): 13592-13598), expression of SP-B by RT-PCR and Western Blot (Rehan et al. (2002) Mol Genet Metab. 76(1): 46-56), or for confocal microscopy (see below for method).
# (§2) Western blot and RT-PCR for SP-B were performed as described by Rehan et al. (2002) Mol Genet Metab. 76(1): 46-56.
# [2] = tested on: SP-B mRNA expression by A549 cells; assay: SP-B mRNA expression by A549 cells (RT-PCR); format: cell-based; details: actinomycin D 1 μg/ml, concomitant incubation with LDs
# Experimental: as §1, §2
SMILES,effect on ADRP-LD-stimulated SP-B protein increase [1],effect on ADRP induction of SP-B mRNA expression [2]
C[C@@H]1C[C@@H]([C@H](O)CC2CC(=O)NC(=O)C2)C(=O)[C@@H](C)C1 [cycloheximide],blocked; also recorded: inhibited,
"Cc1c2oc3c(C)ccc(C(=O)N[C@@H]4C(=O)N[C@H](C(C)C)C(=O)N5CCC[C@H]5C(=O)N(C)CC(=O)N(C)[C@@H](C(C)C)C(=O)O[C@@H]4C)c3nc-2c(C(=O)N[C@@H]2C(=O)N[C@H](C(C)C)C(=O)N3CCC[C@H]3C(=O)N(C)CC(=O)N(C)[C@@H](C(C)C)C(=O)O[C@@H]2C)c(N)c1=O [Actinomycin D] (I: T[dV]P[Sar][NMeV] / II: T[dV]P[Sar][NMeV]; ester I:1-I:C, II:1-II:C; linker I:N-II:N via Actinocin(9to1))",,blocked
